These results are taken from patent US9132103B2, “Disinfecting agent comprising eugenol, terpineol and thymol” (Conopco, Inc., priority 2009, dated 2015).

This assay concerns E. coli ATCC 10536. Kind of assay: Bacterial kill after 15 seconds of contact (viable E. coli count by neutralization, serial dilution and plating). The conditions noted are these: log10 of viable E. coli remaining after 15 seconds of contact; about 10^7 cells; water carrier; Table 2. It is filed as cell-based. Here is the method:
About 10^7 bacterial cells (E. coli ATCC 10536) were taken in a test tube and contacted with various compositions for a period of 15 seconds. Bacteria were taken out after 15 seconds of contact and presence of viable cells was determined by neutralization of the antimicrobial, serial dilution and plating on agar plates. The data is presented in Table-1 as log (Viable E. Coli) which is the log10 of the number of viable E. coli remaining after 15 seconds of contact. Thus if 10^4 remained, log (Viable E. coli) is 4.
The data in Table-1 is an average result of four experiments.
Various compositions as shown in Table-2 were prepared using the same procedure as used for examples 1 to 3 and the antibacterial efficacy was evaluated using the same procedure as used to evaluate Examples 1 to 3. The data on antibacterial efficacy is represented in Table-2.
Compositions as summarized in Table-3 were prepared using a similar procedure as used for Examples 1 to 3 and the antibacterial efficacy was evaluated using a procedure similar to that used for Examples 1 to 3.
The various compositions were diluted with water in a ratio of composition:water of 1:400 and then tested for antibacterial efficacy. The procedure used was similar to that used for Examples 1 to 3.
Soap bar compositions were prepared as per conventional procedure for preparing milled and plodded soap bars. […]

Consider `Cc1ccc(C(C)C)c(O)c1` [Example 6, Thymol], for which the “Log (Viable E. coli)” value is 6.5. As for Terpineol [Example 7], the figure is 6.5.
